Test: xn = mol fraction of the nth substance listed
Details: Liquid

CCCCO [butan-1-ol] + O=C=O
Details | mass density [kg/m3]
352.82 K, 13001 kPa, x2 = 0.1842 | 780.49
352.82 K, 14050 kPa, x2 = 0.1842 | 781.67
352.82 K, 15000 kPa, x2 = 0.1842 | 782.72
352.82 K, 15999 kPa, x2 = 0.1842 | 783.84
352.82 K, 17008 kPa, x2 = 0.1842 | 784.88
352.82 K, 18066 kPa, x2 = 0.1842 | 786.01
352.82 K, 19002 kPa, x2 = 0.1842 | 787.01
352.82 K, 20015 kPa, x2 = 0.1842 | 788.03
352.82 K, 21043 kPa, x2 = 0.1842 | 789.11
352.82 K, 22025 kPa, x2 = 0.1842 | 790.1
352.82 K, 23024 kPa, x2 = 0.1842 | 791.11
352.82 K, 24015 kPa, x2 = 0.1842 | 792.1
352.82 K, 25100 kPa, x2 = 0.1842 | 793.18
352.83 K, 2007 kPa, x2 = 0.0857 | 766.96
352.83 K, 3023 kPa, x2 = 0.0857 | 768.13
352.83 K, 3953 kPa, x2 = 0.0857 | 769.18
352.83 K, 5008 kPa, x2 = 0.0857 | 770.34
352.83 K, 5991 kPa, x2 = 0.0857 | 771.43
352.83 K, 7011 kPa, x2 = 0.0857 | 772.54
352.83 K, 7992 kPa, x2 = 0.0857 | 773.57
352.83 K, 9016 kPa, x2 = 0.0857 | 774.63
352.83 K, 10033 kPa, x2 = 0.0857 | 775.71
352.83 K, 10983 kPa, x2 = 0.0857 | 776.62
352.83 K, 12020 kPa, x2 = 0.0857 | 777.74
352.83 K, 13038 kPa, x2 = 0.0857 | 778.75
352.83 K, 13990 kPa, x2 = 0.0857 | 779.64
352.83 K, 14986 kPa, x2 = 0.0857 | 780.63
352.83 K, 16028 kPa, x2 = 0.0857 | 781.61
352.83 K, 16995 kPa, x2 = 0.0857 | 782.54
352.83 K, 17994 kPa, x2 = 0.0857 | 783.45
352.83 K, 18991 kPa, x2 = 0.0857 | 784.4
352.83 K, 20014 kPa, x2 = 0.0857 | 785.33
352.83 K, 21017 kPa, x2 = 0.0857 | 786.18
352.83 K, 21993 kPa, x2 = 0.0857 | 787.09
352.83 K, 23041 kPa, x2 = 0.0857 | 788.01
352.83 K, 24037 kPa, x2 = 0.0857 | 788.92
352.83 K, 25058 kPa, x2 = 0.0857 | 789.81
352.85 K, 13091 kPa, x2 = 0.4972 | 783.81
352.85 K, 13958 kPa, x2 = 0.4972 | 785.52
352.85 K, 15066 kPa, x2 = 0.4972 | 787.67
352.85 K, 16029 kPa, x2 = 0.4972 | 789.49

— the NIST ThermoML archive (doi:10.1021/je700261b)
